Assay results taken from patent publication US4822818A, “Bicycle compounds, their production and use” (Takeda Chemical Industries, Ltd., priority 1980, dated 1989).
Where a name gives a salt, the structure may show the parent alone.

Assays:
[1] = target: T1, Angiotensin I Converting Enzyme (ACE) (Oryctolagus cuniculus, UniProt P12822); assay: Inhibition of Angiotensin I Converting Enzyme (ACE), substrate hippuryl-L-histidyl-L-leucine (HHL), hippuric acid produced; type: biochemical; details: pH 8.3, 37° C., one hour, read-out: Inhibitory Activity on ACE; for inhibition at 1 µM: Concentration 1 μM; for inhibition at 10 µM: Concentration 10 μM
T1 sequence (P12822 34-1310): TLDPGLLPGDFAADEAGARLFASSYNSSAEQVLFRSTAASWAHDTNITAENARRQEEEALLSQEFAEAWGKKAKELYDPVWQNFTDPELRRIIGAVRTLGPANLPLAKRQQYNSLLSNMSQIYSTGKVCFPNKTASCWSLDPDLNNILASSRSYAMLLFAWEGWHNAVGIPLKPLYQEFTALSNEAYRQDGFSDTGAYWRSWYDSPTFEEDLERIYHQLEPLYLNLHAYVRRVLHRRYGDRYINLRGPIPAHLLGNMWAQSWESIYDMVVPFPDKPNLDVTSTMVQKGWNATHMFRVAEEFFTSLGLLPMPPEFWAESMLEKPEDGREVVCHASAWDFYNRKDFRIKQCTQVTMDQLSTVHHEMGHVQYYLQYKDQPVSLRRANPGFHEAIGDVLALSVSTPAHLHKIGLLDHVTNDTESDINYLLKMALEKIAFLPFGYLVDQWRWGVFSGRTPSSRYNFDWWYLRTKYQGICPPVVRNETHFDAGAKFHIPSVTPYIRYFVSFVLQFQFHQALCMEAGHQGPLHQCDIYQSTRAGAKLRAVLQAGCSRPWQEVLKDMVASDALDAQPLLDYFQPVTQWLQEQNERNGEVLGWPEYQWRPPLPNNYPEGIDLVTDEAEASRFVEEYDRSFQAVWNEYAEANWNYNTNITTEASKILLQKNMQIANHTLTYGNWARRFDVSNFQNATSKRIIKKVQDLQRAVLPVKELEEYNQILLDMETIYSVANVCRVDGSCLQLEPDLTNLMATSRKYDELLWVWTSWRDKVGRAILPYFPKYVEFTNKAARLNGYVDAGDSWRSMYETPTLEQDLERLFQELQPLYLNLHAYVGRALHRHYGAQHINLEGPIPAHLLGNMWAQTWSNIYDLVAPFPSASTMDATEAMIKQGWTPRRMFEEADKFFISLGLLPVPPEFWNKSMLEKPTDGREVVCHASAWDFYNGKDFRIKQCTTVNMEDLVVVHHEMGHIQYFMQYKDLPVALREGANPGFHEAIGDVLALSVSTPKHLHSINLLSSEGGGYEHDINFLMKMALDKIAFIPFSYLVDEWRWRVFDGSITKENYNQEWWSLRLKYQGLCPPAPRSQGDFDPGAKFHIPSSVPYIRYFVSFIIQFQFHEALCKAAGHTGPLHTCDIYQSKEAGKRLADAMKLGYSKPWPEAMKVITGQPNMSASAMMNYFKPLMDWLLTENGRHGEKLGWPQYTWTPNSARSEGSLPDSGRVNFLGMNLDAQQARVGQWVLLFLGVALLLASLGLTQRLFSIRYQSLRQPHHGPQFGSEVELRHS
Procedure: Inhibitions of Angiotensin I Converting Enzyme (ACE) by the Compounds of this Invention. The experiment was conducted in accordance with a modification of the method described by Cushman et al. [Biochemical Pharmacology, Vol. 20, 1637(1971)]. That is, using hippuryl-L-histidyl-L-leucine(HHL) as the substrate, the ACE inhibitory activity was determined in terms of percent inhibition on the amount of hippuric acid produced by ACE when the present compound was added. […] In this experiment, a potassium phosphate buffer solution containing dimethyl sulfoxide at a concentration equal to that of the test solution was used as a control. After incubating the solution at 37° C. for one hour, 150 μl of 1N hydrochloric acid was added to the solution to terminate the reaction. After 1 ml of ethyl acetate was added, the solution was centrifuged at 3000 r.p.m. for 10 minutes. A 0.5 ml aliquot was separated from the ethyl acetate layer and dried at a temperature below 50° C. under nitrogen gas streams. The residue was mixed with 5 ml of 1M aqueous sodium chloride and the mixture was subjected to colorimetry at a wavelength of 228 nm.

Angiotensin I = assay: Effect of present compounds against hypertensive activity of angiotensin I in rats, oral administration; type: in vivo, Male rats (Sprague-Dawley); details: rat, oral 13.8 μM/kg, angiotensin I 300 ng/kg i.v., corrected by angiotensin II reaction; for Percent Inhibition against Hypertensive Reaction by Angiotensin I, After 20 min.: 20 min after administration; for Percent Inhibition against Hypertensive Reaction by Angiotensin I, After 60 min.: 60 min after administration; for Percent Inhibition against Hypertensive Reaction by Angiotensin I, After 120 min.: 120 min after administration
Procedure: Effect of Present Compounds against Hypertensive Activity of Angiotensin I
Male rats (Sprague-Dawley) weighing 250 g to 350 g which were fed under free access to drinking water and feeds were used as experimental animals. The rats were anesthetized with intraperitoneal administration of pentobarbital sodium (50 mg/kg) on the day before the test day and a polyethylene tube was inserted into each of the femoral artery for measurement of blood pressure and the femoral vein for injection of angiotensin I and II, and then the tubes were fixed.
On the test day, an average blood pressure in the control phase was recorded on an electric hemodynamometer (MP-4T model manufactured by Nippon Koden, Japan) and thereafter angiotensin I and then angiotensin II were injected through the femoral vein at a dose of 300 ng/kg and 100 ng/kg respectively, to measure the hypertensive activity. Then, 13.8 μM/kg of the compound of this invention was administered orally as an aqueous solution or an aqueous gum arabic suspension, and 20, 60 and 120 minutes after the administration, angiotensin I and II were injected repeatedly to trace hypertensive reactions. In calculating the percent inhibition to the hypertensive activity of angiotensin I, the percent inhibitory value was corrected based on the variation with time in the hypertensive reaction by angiotensin II.

Row | SMILES | inhibition at 1 µM [1] [%] | inhibition at 10 µM [1] [%] | Percent Inhibition against Hypertensive Reaction by Angiotensin I, After 20 min. (Angiotensin I) [%] | Percent Inhibition against Hypertensive Reaction by Angiotensin I, After 60 min. (Angiotensin I) [%] | Percent Inhibition against Hypertensive Reaction by Angiotensin I, After 120 min. (Angiotensin I) [%]
1 | CCCCOC(=O)C(CCc1ccccc1)N[C@@H](C)C(=O)N(CC(=O)O)C1Cc2ccccc2C1 (stereo partly drawn) [Example 8, N-(1-butoxycarbonyl-3-phenylpropyl)-L-alanyl-N-(indan-2-yl)glycine hydrochloride] | 69 | 99 |  |  | 
2 | CCOC(=O)[C@H](CCc1ccc(OC)c(OC)c1)N[C@@H](C)C(=O)N(CC(=O)O)C1Cc2ccccc2C1.Cl [Example 15, N-[1-(S)-ethoxycarbonyl-3-(3,4-dimethoxyphenyl)propyl]-L-alanyl-N-(indan-2-yl)glycine hydrochloride] |  |  | 84 | 80 | 65
3 | CCCOC(=O)C(CCc1ccccc1)N[C@@H](C)C(=O)N(CC(=O)O)C1Cc2ccccc2C1.Cl (stereo partly drawn) [Example 7, N-(1-propoxycarbonyl-3-phenylpropyl)-L-alanyl-N-(indan-2-yl)glycine hydrochloride] | 91 | 97 | 84 | 91 | 96
4 | CC(C)OC(=O)C(CCc1ccccc1)N[C@@H](C)C(=O)N(CC(=O)O)C1Cc2ccccc2C1.Cl (stereo partly drawn) [Example 9, N-(1-isopropoxycarbonyl-3-phenylpropyl)-L-alanyl-N-(indan-2-yl)glycine hydrochloride] | 72 | 95 | 88 | 71 | 51

Second part, led by results:

Row | inhibition at 1 µM [1] [%] | inhibition at 10 µM [1] [%] | SMILES | Percent Inhibition against Hypertensive Reaction by Angiotensin I, After 20 min. (Angiotensin I) [%] | Percent Inhibition against Hypertensive Reaction by Angiotensin I, After 60 min. (Angiotensin I) [%] | Percent Inhibition against Hypertensive Reaction by Angiotensin I, After 120 min. (Angiotensin I) [%]
5 | 87 | 97 | CCOC(=O)C(CCc1ccccc1)N[C@@H](C)C(=O)N(CC(=O)O)C1Cc2ccccc2C1.Cl (stereo partly drawn) [Example 1, N-(1-ethoxycarbonyl-3-phenylpropyl)-L-alanyl-N-(indan-2-yl)glycine hydrochloride] | 93 | 88 | 77
6 | 95 | 98 | C[C@H](N[C@@H](CCc1ccccc1)C(=O)O)C(=O)N(CC(=O)O)C1Cc2ccccc2C1 [Example 19, N-(1-(S)-carboxyl-3-phenylpropyl)-L-alanyl-N-(indan-2-yl)glycine] |  |  | 
